Laboratory results taken from ChEMBL document CHEMBL4507284, “Data for DCP probe BI-1230” (2021).

Assays:
[1] = target: AP2-associated protein kinase 1 (Homo sapiens) (UniProt Q2M2I8); conditions: Compound concentration 1000.0 nM
[2] = test system: Tyrosine-protein kinase ABL1 (Homo sapiens), P00519 [E255K]; conditions: Compound concentration 1000.0 nM
[3] = test system: Tyrosine-protein kinase ABL1 (Homo sapiens), P00519 [H396P]; conditions: Compound concentration 1000.0 nM
[4] = test system: Tyrosine-protein kinase ABL1 (Homo sapiens), P00519 [Q252H]; conditions: Compound concentration 1000.0 nM
[5] = target: RAC-beta serine/threonine-protein kinase (Homo sapiens) (UniProt P31751); conditions: Compound concentration 1000.0 nM
[6] = target: Calcium/calmodulin-dependent protein kinase type II subunit beta (Homo sapiens) (UniProt Q13554); conditions: Compound concentration 1000.0 nM
[7] = target: Cyclin-dependent kinase 7 (Homo sapiens) (UniProt P50613); conditions: Compound concentration 1000.0 nM
[8] = target: Cyclin-dependent kinase-like 5 (Homo sapiens) (UniProt O76039); conditions: Compound concentration 1000.0 nM
[9] = target: Casein kinase I isoform epsilon (Homo sapiens) (UniProt P49674); conditions: Compound concentration 1000.0 nM
[10] = target: Epithelial discoidin domain-containing receptor 1 (Homo sapiens) (UniProt Q08345); conditions: Compound concentration 1000.0 nM
[11] = target: Dual specificity tyrosine-phosphorylation-regulated kinase 2 (Homo sapiens) (UniProt Q92630); conditions: Compound concentration 1000.0 nM
[12] = test system: Epidermal growth factor receptor (Homo sapiens), P00533 [UNDEFINED MUTATION]; conditions: Compound concentration 1000.0 nM
[13] = test system: Epidermal growth factor receptor (Homo sapiens), P00533 [L858R,T790M]; conditions: Compound concentration 1000.0 nM
[14] = target: Ephrin type-A receptor 6 (Homo sapiens) (UniProt Q9UF33); conditions: Compound concentration 1000.0 nM
Sequence of Ephrin type-A receptor 6 (Homo sapiens) (Q9UF33 whole entry): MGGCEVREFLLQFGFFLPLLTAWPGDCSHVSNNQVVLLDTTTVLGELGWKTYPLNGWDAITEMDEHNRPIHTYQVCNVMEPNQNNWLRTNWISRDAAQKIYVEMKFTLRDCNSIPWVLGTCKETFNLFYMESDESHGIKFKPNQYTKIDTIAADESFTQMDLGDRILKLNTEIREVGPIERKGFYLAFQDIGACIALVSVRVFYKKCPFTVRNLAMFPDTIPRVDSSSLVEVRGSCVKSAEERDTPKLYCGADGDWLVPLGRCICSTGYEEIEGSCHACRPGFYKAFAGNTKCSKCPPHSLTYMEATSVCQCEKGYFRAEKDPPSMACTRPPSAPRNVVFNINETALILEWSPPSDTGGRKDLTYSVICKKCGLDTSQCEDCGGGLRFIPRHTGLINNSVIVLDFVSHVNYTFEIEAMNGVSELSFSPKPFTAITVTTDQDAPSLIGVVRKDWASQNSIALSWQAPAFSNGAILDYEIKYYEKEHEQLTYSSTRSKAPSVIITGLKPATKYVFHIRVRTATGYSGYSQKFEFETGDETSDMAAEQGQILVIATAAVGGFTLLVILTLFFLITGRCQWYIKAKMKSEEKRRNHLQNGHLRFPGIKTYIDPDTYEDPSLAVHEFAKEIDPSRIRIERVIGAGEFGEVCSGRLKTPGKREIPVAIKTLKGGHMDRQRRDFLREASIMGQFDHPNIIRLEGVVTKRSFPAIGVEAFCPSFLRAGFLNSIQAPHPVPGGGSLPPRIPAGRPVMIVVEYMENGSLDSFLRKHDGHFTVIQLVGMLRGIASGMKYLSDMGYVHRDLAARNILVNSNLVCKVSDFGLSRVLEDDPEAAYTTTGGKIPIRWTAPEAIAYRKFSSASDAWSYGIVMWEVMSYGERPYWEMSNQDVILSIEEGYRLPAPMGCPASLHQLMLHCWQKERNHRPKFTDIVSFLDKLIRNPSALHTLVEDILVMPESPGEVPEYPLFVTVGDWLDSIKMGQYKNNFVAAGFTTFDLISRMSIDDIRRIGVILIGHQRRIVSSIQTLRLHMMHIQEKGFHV

[15] = target: Mitogen-activated protein kinase 15 (Homo sapiens) (UniProt Q8TD08); conditions: Compound concentration 1000.0 nM
Sequence of Mitogen-activated protein kinase 15 (Homo sapiens) (Q8TD08 whole entry): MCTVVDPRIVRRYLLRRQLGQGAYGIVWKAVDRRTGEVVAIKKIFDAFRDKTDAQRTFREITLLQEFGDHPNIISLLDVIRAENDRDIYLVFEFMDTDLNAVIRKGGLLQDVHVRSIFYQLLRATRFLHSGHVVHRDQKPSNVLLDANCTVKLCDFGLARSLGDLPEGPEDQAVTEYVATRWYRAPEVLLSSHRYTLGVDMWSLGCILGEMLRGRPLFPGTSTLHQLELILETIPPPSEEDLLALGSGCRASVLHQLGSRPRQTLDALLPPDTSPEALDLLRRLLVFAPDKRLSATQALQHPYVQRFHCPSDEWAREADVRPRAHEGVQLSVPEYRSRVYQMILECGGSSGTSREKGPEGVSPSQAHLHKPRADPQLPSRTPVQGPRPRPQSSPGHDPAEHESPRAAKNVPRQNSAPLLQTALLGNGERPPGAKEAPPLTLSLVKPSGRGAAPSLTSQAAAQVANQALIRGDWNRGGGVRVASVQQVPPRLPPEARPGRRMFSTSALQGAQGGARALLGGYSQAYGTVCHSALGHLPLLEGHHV

[16] = target: Tyrosine-protein kinase Fes/Fps (Homo sapiens) (UniProt P07332); conditions: Compound concentration 1000.0 nM
[17] = test system: eIF-2-alpha kinase GCN2 (Homo sapiens), Q9P2K8 [S808G]; conditions: Compound concentration 1000.0 nM
[18] = target: Inhibitor of nuclear factor kappa-B kinase subunit alpha (Homo sapiens) (UniProt O15111); conditions: Compound concentration 1000.0 nM
Sequence of Inhibitor of nuclear factor kappa-B kinase subunit alpha (Homo sapiens) (O15111 whole entry): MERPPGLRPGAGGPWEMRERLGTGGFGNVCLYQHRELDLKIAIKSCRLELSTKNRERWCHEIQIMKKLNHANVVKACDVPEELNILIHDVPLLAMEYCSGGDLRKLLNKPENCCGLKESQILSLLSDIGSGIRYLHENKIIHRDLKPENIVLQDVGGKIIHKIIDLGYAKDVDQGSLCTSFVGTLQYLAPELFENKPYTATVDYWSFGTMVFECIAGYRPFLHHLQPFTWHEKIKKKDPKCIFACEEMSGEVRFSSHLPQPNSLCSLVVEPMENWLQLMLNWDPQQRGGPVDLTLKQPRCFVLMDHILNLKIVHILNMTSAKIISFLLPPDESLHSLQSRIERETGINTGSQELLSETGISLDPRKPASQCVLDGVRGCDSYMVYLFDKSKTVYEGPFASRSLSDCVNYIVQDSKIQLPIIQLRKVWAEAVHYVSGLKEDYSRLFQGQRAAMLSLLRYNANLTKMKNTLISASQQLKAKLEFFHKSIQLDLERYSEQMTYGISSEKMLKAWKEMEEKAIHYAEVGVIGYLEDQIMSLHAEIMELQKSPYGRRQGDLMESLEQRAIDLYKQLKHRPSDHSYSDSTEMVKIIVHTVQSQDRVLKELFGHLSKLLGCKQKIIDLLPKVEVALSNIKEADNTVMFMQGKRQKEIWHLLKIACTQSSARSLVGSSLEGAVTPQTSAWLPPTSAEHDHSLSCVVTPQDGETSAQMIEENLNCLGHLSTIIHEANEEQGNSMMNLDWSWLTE

[19] = target: Inhibitor of nuclear factor kappa-B kinase subunit beta (Homo sapiens) (UniProt O14920); conditions: Compound concentration 1000.0 nM
[20] = target: Inhibitor of nuclear factor kappa-B kinase subunit epsilon (Homo sapiens) (UniProt Q14164); conditions: Compound concentration 1000.0 nM
[21] = target: Insulin receptor (Homo sapiens) (UniProt P06213); conditions: Compound concentration 1000.0 nM
[22] = target: Tyrosine-protein kinase ITK/TSK (Homo sapiens) (UniProt Q08881); conditions: Compound concentration 1000.0 nM
[23] = test system: Mast/stem cell growth factor receptor Kit (Homo sapiens), P10721 [D816H]; conditions: Compound concentration 1000.0 nM
[24] = target: LIM domain kinase 1 (Homo sapiens) (UniProt P53667); conditions: Compound concentration 1000.0 nM
[25] = target: Serine/threonine-protein kinase 10 (Homo sapiens) (UniProt O94804); conditions: Compound concentration 1000.0 nM
Sequence of Serine/threonine-protein kinase 10 (Homo sapiens) (O94804 whole entry, looked up): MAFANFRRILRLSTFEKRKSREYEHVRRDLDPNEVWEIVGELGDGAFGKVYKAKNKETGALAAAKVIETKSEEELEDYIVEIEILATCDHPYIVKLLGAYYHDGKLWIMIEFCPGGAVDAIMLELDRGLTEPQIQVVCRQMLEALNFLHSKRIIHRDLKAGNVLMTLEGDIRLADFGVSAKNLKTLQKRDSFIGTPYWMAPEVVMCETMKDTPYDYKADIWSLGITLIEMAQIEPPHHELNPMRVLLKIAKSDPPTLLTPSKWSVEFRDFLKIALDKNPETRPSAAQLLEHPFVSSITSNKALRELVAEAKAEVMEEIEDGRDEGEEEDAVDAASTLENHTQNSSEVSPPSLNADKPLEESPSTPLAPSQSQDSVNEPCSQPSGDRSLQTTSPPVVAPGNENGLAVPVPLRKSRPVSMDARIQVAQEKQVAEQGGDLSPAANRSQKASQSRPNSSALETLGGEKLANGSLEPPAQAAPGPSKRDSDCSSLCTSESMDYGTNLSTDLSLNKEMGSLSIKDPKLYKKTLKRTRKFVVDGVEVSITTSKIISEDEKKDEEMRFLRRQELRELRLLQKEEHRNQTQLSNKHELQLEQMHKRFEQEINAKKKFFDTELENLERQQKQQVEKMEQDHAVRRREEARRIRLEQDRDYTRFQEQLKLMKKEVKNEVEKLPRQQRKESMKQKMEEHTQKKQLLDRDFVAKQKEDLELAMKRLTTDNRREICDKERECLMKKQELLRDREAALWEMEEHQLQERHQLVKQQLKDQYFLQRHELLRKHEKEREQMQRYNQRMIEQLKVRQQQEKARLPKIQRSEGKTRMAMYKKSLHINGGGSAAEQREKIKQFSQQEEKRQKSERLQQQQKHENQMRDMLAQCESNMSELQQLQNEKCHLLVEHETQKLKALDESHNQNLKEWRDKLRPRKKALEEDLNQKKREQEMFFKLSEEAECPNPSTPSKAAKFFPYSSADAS

[26] = target: Mitogen-activated protein kinase kinase kinase 11 (Homo sapiens) (UniProt Q16584); conditions: Compound concentration 1000.0 nM
[27] = target: Serine/threonine-protein kinase Nek5 (Homo sapiens) (UniProt Q6P3R8); conditions: Compound concentration 1000.0 nM
[28] = target: Serine/threonine-protein kinase PAK 6 (Homo sapiens) (UniProt Q9NQU5); conditions: Compound concentration 1000.0 nM
Sequence of Serine/threonine-protein kinase PAK 6 (Homo sapiens) (Q9NQU5 whole entry, looked up): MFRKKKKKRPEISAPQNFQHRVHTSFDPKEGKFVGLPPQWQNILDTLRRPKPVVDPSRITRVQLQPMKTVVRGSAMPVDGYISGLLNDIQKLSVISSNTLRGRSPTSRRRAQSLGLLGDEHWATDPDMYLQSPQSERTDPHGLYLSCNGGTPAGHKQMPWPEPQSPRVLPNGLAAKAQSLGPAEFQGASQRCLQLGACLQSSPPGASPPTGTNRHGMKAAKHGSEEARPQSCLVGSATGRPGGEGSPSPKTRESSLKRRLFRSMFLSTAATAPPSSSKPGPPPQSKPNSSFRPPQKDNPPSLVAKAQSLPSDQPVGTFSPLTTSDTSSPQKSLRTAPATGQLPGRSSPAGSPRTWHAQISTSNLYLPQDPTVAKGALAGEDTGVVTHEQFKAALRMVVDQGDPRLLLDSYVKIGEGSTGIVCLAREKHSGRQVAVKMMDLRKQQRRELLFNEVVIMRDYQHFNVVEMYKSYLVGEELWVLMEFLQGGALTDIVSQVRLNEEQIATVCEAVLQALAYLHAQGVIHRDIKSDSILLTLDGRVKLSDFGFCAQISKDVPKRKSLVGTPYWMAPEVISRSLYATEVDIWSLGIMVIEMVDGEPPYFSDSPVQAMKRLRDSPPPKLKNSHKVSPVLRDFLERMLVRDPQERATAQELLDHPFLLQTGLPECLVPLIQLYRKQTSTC

[29] = target: Cyclin-dependent kinase 16 (Homo sapiens) (UniProt Q00536); conditions: Compound concentration 1000.0 nM
[30] = target: Platelet-derived growth factor receptor alpha (Homo sapiens) (UniProt P16234); conditions: Compound concentration 1000.0 nM
[31] = target: Serine/threonine-protein kinase pim-2 (Homo sapiens) (UniProt Q9P1W9); conditions: Compound concentration 1000.0 nM
[32] = target: Serine/threonine-protein kinase N2 (Homo sapiens) (UniProt Q16513); conditions: Compound concentration 1000.0 nM
[33] = target: Ribosomal protein S6 kinase alpha-3 (Homo sapiens) (UniProt P51812); conditions: Compound concentration 1000.0 nM
[34] = target: Ribosomal protein S6 kinase alpha-2 (Homo sapiens) (UniProt Q15349); conditions: Compound concentration 1000.0 nM
[35] = target: Ribosomal protein S6 kinase beta-1 (Homo sapiens) (UniProt P23443); conditions: Compound concentration 1000.0 nM
[36] = target: TGF-beta receptor type-1 (Homo sapiens) (UniProt P36897); conditions: Compound concentration 1000.0 nM
[37] = target: TRAF2 and NCK-interacting protein kinase (Homo sapiens) (UniProt Q9UKE5); conditions: Compound concentration 1000.0 nM
[38] = target: Non-receptor tyrosine-protein kinase TNK1 (Homo sapiens) (UniProt Q13470); conditions: Compound concentration 1000.0 nM
[39] = target: Testis-specific serine/threonine-protein kinase 1 (Homo sapiens) (UniProt Q9BXA7); conditions: Compound concentration 1000.0 nM
Sequence of Testis-specific serine/threonine-protein kinase 1 (Homo sapiens) (Q9BXA7 whole entry): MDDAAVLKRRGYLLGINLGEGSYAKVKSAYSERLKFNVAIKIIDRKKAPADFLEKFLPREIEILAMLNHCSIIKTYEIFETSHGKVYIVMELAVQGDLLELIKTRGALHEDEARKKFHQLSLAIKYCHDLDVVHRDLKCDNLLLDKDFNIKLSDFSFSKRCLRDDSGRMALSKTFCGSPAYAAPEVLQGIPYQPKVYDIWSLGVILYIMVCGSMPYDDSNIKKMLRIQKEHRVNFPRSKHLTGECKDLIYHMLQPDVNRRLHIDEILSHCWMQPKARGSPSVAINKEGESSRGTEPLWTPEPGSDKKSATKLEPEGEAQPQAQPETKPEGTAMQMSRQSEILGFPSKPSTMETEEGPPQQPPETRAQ

[40] = target: Testis-specific serine/threonine-protein kinase 3 (Homo sapiens) (UniProt Q96PN8); conditions: Compound concentration 1000.0 nM
Sequence of Testis-specific serine/threonine-protein kinase 3 (Homo sapiens) (Q96PN8 whole entry): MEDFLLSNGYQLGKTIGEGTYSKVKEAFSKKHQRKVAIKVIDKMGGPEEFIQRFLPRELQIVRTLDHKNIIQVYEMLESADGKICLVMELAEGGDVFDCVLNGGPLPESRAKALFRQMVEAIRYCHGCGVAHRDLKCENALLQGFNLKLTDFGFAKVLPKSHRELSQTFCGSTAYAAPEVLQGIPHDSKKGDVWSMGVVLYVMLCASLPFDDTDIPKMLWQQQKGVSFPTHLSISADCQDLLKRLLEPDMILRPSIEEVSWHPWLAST

[41] = target: Non-receptor tyrosine-protein kinase TYK2 (Homo sapiens) (UniProt P29597); conditions: Compound concentration 1000.0 nM
[42] = target: Phosphatidylinositol 3-kinase catalytic subunit type 3 (Homo sapiens) (UniProt Q8NEB9); conditions: Compound concentration 1000.0 nM
[43] = target: Serine/threonine-protein kinase 25 (Homo sapiens) (UniProt O00506); conditions: Compound concentration 1000.0 nM
[44] = target: 5-hydroxytryptamine receptor 2A (Homo sapiens) (UniProt P28223); conditions: Compound concentration 10.0 uM
[45] = target: D(4) dopamine receptor (Homo sapiens) (UniProt P21917); conditions: Compound concentration 10.0 uM
Sequence of D(4) dopamine receptor (Homo sapiens) (P21917 whole entry): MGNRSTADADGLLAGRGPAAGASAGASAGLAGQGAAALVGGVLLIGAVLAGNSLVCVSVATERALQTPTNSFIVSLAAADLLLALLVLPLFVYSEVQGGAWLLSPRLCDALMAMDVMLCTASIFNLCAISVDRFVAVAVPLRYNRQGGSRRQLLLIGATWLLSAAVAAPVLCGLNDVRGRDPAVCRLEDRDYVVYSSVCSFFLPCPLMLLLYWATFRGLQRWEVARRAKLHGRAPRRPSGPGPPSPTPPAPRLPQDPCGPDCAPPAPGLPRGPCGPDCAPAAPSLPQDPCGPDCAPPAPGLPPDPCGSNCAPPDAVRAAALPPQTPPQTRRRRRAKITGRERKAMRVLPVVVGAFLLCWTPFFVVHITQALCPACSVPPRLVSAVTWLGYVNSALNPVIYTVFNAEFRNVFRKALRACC

COc1ccc2c(O[C@@H]3C[C@H]4C(=O)N[C@]5(C(=O)O)CC5/C=C\CCCCC[C@H](NC(=O)OC5CCCC5)C(=O)N4C3)cc(-c3csc(NC(=O)C(C)C)n3)nc2c1C (stereo not given in full) [BI 1230]
inactive: residual activity [1] 100% | residual activity [2] 80% | residual activity [3] 91% | residual activity [4] 70% | residual activity [5] 89% | residual activity [6] 100% | residual activity [7] 62% | residual activity [8] 77% | residual activity [9] 100% | residual activity [10] 100% | residual activity [11] 77% | residual activity [12] 98% | residual activity [13] 100% | residual activity [14] 100% | residual activity [15] 100% | residual activity [16] 100% | residual activity [17] 100% | residual activity [18] 92% | residual activity [19] 83% | residual activity [20] 82% | residual activity [21] 94% | residual activity [22] 95% | residual activity [23] 86% | residual activity [24] 100% | residual activity [25] 100% | residual activity [26] 100% | residual activity [27] 98% | residual activity [28] 100% | residual activity [29] 79% | residual activity [30] 84% | residual activity [31] 100% | residual activity [32] 67% | residual activity [33] 100% | residual activity [34] 100% | residual activity [35] 93% | residual activity [36] 100% | residual activity [37] 96% | residual activity [38] 100% | residual activity [39] 70% | residual activity [40] 80% | residual activity [41] 74% | residual activity [42] 100% | residual activity [43] 100% | inhibition [44] 11.4% | inhibition [45] 24.6%

O=C(N[C@H]1CCCCC/C=C\C2C[C@@]2(C(=O)O)NC(=O)[C@@H]2C[C@@H](Oc3ccncc3)CN2C1=O)OC1CCCC1 (stereo not given in full) [BI 1675]
inactive: residual activity [1] 77% | residual activity [2] 80% | residual activity [3] 71% | residual activity [4] 65% | residual activity [5] 85% | residual activity [6] 99% | residual activity [7] 71% | residual activity [8] 83% | residual activity [9] 67% | residual activity [10] 100% | residual activity [11] 66% | residual activity [12] 100% | residual activity [13] 98% | residual activity [14] 100% | residual activity [15] 100% | residual activity [16] 100% | residual activity [17] 100% | residual activity [18] 100% | residual activity [19] 91% | residual activity [20] 100% | residual activity [21] 100% | residual activity [22] 100% | residual activity [23] 100% | residual activity [24] 92% | residual activity [25] 99% | residual activity [26] 97% | residual activity [27] 91% | residual activity [28] 100% | residual activity [29] 83% | residual activity [30] 99% | residual activity [31] 100% | residual activity [32] 75% | residual activity [33] 100% | residual activity [34] 99% | residual activity [35] 89% | residual activity [36] 100% | residual activity [37] 78% | residual activity [38] 100% | residual activity [39] 77% | residual activity [40] 100% | residual activity [41] 99% | residual activity [42] 100% | residual activity [43] 97% | inhibition [44] -7.7% | inhibition [45] 9.26%
